Reference: PMC9012168 (BioProcess international, 2018)
pIC50: −log10 of the molar value. Starred links: 1 amine or outer side, 2 acyl side, 3 side chain; linkers in the order of their positions; H or OH if unused. Positions of bridges follow the written chain, without caps; N, C: chain ends. Non-standard residues stand in square brackets, D forms with d. Residues, ends and D or L forms follow the SMILES beside them. Chains are numbered I, II in the order given. Actinocin(9to1) = Cc1c2oc3c(C)ccc(C(=O)[*:1])c3nc-2c(C(=O)[*:2])c(N)c1=O; NMeV = CN[C@H](C(=O)O)C(C)C; Sar = CNCC(=O)O

Assay: in vitro
Assay type: cell-based
Settings: human

## Cc1c2oc3c(C)ccc(C(=O)N[C@@H]4C(=O)N[C@H](C(C)C)C(=O)N5CCC[C@H]5C(=O)N(C)CC(=O)N(C)[C@@H](C(C)C)C(=O)O[C@@H]4C)c3nc-2c(C(=O)N[C@@H]2C(=O)N[C@H](C(C)C)C(=O)N3CCC[C@H]3C(=O)N(C)CC(=O)N(C)[C@@H](C(C)C)C(=O)O[C@@H]2C)c(N)c1=O [dactinomycin] (I: T[dV]P[Sar][NMeV] / II: T[dV]P[Sar][NMeV]; ester I:1-I:C, II:1-II:C; linker I:N-II:N via Actinocin(9to1))
  pIC50: 8.07
